The nature of series [1]: Stability of radiolabeled kit in vehicle (radiochemical purity over time). Type of series: physicochemical. Particulars: final formulation (acetate buffer, PBS, 0.9% NaCl). As for the experimental part:
For process validation, the [^68Ga]Ga-RM2 kits were subjected to full quality control. […] Molar activity was calculated after linear regression of the calibration curve with [^natGa]Ga-RM2 (Life Molecular Imaging). The pH was determined using a pH-meter. Volumetric activity was determined by dividing activity obtained by the final volume. The [^68Ga]Ga-RM2 was also subjected to endotoxin testing (Charles Rivers), sterility testing and radionuclidic purity and filter integrity tests. Results were then compared to the production capacity provided by the module route currently running in our NCT03604757 and NCT03606837 studies.
After optimization, ^68Ga radiolabeling of the RM2 kits was carried out in three consecutive batches, and they all complied with the requirements of the monograph of the European Pharmacopoeia (as described for [^68Ga]Ga-edotreotide) (Figure 4 and Table 1). The evolution of the radiochemical purity over time was also checked.

Series [2] can be described thus: Lipophilicity, water-octanol partition/distribution coefficient method. Particulars: 1-octanol/phosphate buffered saline; shake-flask 1-octanol/PBS pH 7.4 (500 µL each), 3.7 MBq, stirred 5 min at room temperature, centrifuged, gamma counter, decay-corrected; three experiments in triplicate, mean ± SD. Type of series: physicochemical. As for the experimental part: The lipophilicity of the [^68Ga]Ga-RM2 was assessed by the water-octanol partition/distribution coefficient method. In a centrifuge tube 500 µL of 1-octanol was added to 500 µL of phosphate buffered saline (pH 7.4) containing the radiolabeled peptide (3.7 MBq; ≈10 µL). After equilibrium, the solution was vigorously stirred for 5 min at room temperature and subsequently centrifuged (4000 rpm, 3 min) to yield two immiscible layers. Aliquots of 100 µL were taken from each layer and the radioactivity in the samples was determined by a gamma counter (Gamma Wizard2 Counter 2480; Perkin Elmer, Villebon sur Yvette, France; acquisition time of one minute, energy window centered on the peak of 511 keV). The Log D7.4 was determined by the Log ratio (cpm (counts per minute) organic phase/cpm aqueous phase). The cpm values were decay-corrected. Experiments were performed three times in triplicates.

The next series relates to PC-3 cells. In words: Cellular efflux of internalized radioactivity from PC-3 cells. Type of series: cell-based. As for the experimental part: For in vitro experiments, PC-3 cells were cultured in DMEM/F12 and seeded in 6-well plates at a density of 10^6 cells per well 18 h before carrying out the experiments and incubated overnight with complete medium.
Three minutes before the end of the incubation time, internalization was stopped by removing medium and washing cells with ice-cold PBS. The membrane-bound fraction was removed by rinsing cells with 2 mL acetate buffer (pH = 5; 20 mM) for 2 min and cells were then rinsed ice-cold PBS. Next, 2 mL of complete medium was then added to each well, and PC-3 cells were incubated at 37 °C for 5, 15, 30 and 45 min. At each time point, efflux was stopped by removing medium and cells were rinsed twice with ice-cold PBS. Finally, the cells were treated with 1M NaOH and the radioactivity was measured using a gamma counter.

A further series deals with PC-3. Conditions: other kit formulation without scavenger and bulking agent; cited from earlier work. From the text:
Another kit formulation of RM2 has been developed but without a scavenger and a bulking agent for lyophilization. […] Therefore, our innovative formulation provides longer stability at higher temperature and higher uptake in GRP-R-expressing PC-3 cells.

A further series concerns the target T1, GRP-R (Homo sapiens, UniProt P30550).
T1 construct: higher uptake in GRP-R-expressing PC-3 cells; endogenous in cells; host or cells: PC-3 cells
In words: Intracellular calcium mobilization assay in PC-3 cells. Type of series: cell-based. Particulars: fluo-8AM, 10^-11 M to 10^-5 M, room temperature, pH 7.4.

T1 sequence (P30550 whole entry): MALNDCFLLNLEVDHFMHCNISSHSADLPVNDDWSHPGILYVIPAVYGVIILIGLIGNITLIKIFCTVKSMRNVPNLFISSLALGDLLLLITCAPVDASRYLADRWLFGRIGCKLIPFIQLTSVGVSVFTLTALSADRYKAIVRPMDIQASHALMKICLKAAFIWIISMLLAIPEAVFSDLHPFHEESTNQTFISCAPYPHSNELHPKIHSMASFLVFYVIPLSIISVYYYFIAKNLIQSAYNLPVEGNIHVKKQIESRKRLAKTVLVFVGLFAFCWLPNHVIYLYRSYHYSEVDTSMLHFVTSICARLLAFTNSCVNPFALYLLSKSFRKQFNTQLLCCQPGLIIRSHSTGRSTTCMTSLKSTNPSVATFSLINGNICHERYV
Protocol for GRP-R: For calcium imaging assays, PC-3 cells were cultured as previously described. The day before the experimentation, cells were grown on 15 mm Thermanox® glass slides (Thermofischer, Waltham, MA, USA,) in 6-wells plates at the density of 5.10^5 cells in 500 µL culture medium. Glass slides were individually loaded for 30 min in dark into 500 µL loading solution containing 10 µL fluo-8AM, 10 µL pluronic acid, 50 µL probenecid and 430 µL DMEM/F12 medium. […] A 10-min delay was applied to remove extracellular fluo-8AM and to enable fluo-8AM intracellular hydrolysis. Growing concentrations (10^−11 M to 10^−5 M) of [^natGa]Ga-RM2 were added via a rapid perfusion system.

As to `CC(C)C[C@H](NC(=O)C[C@H](O)[C@H](CC(C)C)NC(=O)[C@H](Cc1c[nH]cn1)NC(=O)CNC(=O)[C@@H](NC(=O)[C@H](C)NC(=O)[C@H](Cc1c[nH]c2ccccc12)NC(=O)[C@H](CCC(N)=O)NC(=O)[C@@H](Cc1ccccc1)NC(=O)CN1CCC(NC(=O)CN2CCN(CC(=O)O)CCN(CC(=O)O)CCN(CC(=O)O)CC2)CC1)C(C)C)C(N)=O` [[^68Ga]Ga-RM2, metal not drawn], the “Stability in vehicle (radiochemical purity over time)” value in series [1] is reported as “stable in vehicle up to 3 h”. Besides, the logD in series [2] was -2.54 ± 0.04. Further, the “Efflux of the internalized activity” value in the series on PC-3 cells (30 min internalization at 37 °C, acid wash, then 5 min at 37 °C in complete medium) was 64.3 ± 6.5%. Besides, in the series on PC-3 cells (45 min post-internalization at 37 °C), the “Efflux (%)” value worked out at 70.8 ± 11.1%. The “Specific uptake in PC-3 (% of cell-associated radioactivity)” value in the series with PC-3 was 5%.

In the case of bombesin, on GRP-R, the “Intracellular calcium mobilization (ΔF/F)” value is “effectively induced calcium mobilization in a dose-dependent manner”.

The values above are taken from PMC8398231 (Pharmaceutics, 2021).
